From patent publication US7259140B2, “Heparin-binding peptides and uses thereof” (Thomas Jefferson University, priority 2003, dated 2007)
Bridge positions count the residues as written; N and C are the ends. Peptide text beside a SMILES is read from it.

Tests used:
[1] = Affinity coelectrophoresis (ACE) of peptide binding to radiolabeled low Mr heparin; parameters: species or system pig; conditions: pH 7.0, mean and standard deviation of four assays, read-out: Kd (nM), affinity for low molecular weight heparin
Description: Preparation of Radiolabeled Heparin. Whole heparin from pig intestinal mucosa (Sigma) was tyramine end-labeled and radiolabeled with Na^125I (Amersham, Pharmacia Biotech, Inc., Piscataway, N.J.) to an average specific activity≅1.0×10^7 CPM/μg as described (San Antonio, J. D., et al., Biochemistry, 32:4746-4755, 1993). Radiolabeled heparin was fractionated on Sephadex G-100 (Bio-Rad Laboratories, Hercules, Calif.) and the final≅12% of material to elute was retained as the low Mr material of ≦6,000 (Jordan, R., D. Beeler, and R. Rosenberg, J. Biol. Chem., 254:2902-2913, 1979; Laurent, T. C., et al., Biochem. J., 175:691-701, 1978).
Analysis of Peptide-Heparin Interactions by Affinity Coelectrophoresis (ACE). ACE was used to study interactions between peptides and low molecular weight (low Mr) heparin (WO00/45831). In ACE, trace concentrations of radiolabeled heparin are electrophoresed through agarose lanes containing peptides at various concentrations. These analyses are used to determine the dissociation constants (Kd's). The electrophoretic patterns of radiolabeled heparin are then visualized using a phosphorimager, and the dissociation constant (Kd) corresponds to the protein concentration at which the heparin is half shifted from being fully mobile at very low protein concentrations to maximally retarded at saturating protein concentrations. The lower the Kd value, the higher the affinity.
Binding of radiolabeled heparin to peptides was studied by ACE as detailed elsewhere (San Antonio, J. D., et al., Biochemistry, 32:4746-4755, 1993). […] Briefly, peptides were dissolved in 1×ACE running buffer, 50 mM sodium 3-(N-morpholino)-2-hydroxypropanesulfonate (MOPSO, Sigma)/125 mM sodium acetate, pH 7.0, and serially diluted in running buffer at 2× concentrations. Peptides were then mixed 1:1 with 2% agarose/1% CHAPS, 3-[(3-cholamidopropyl)dimethylammonio]-1-propanesulfonate, (Boehringer Mannheim, Indianapolis, Ind.), and loaded into wells of a 1% agarose gel. Radiolabeled heparin was then loaded in a slot on the anode side of the gel, and electrophoresed through the peptide-containing wells, towards the cathode. Gels were dried and PG mobility was measured with a Phosphorimager (Molecular Dynamics, Sunnyvale, Calif.) by scanning each protein lane and determining the relative radioactivity content per 88-μm pixel through the length of the lane. Retardation coefficient (R) measurements, binding isotherm curve fittings, and apparent Kd value determinations were calculated as detailed previously (Lee, M. K., and A. D. Lander, Proc. Natl. Acad. Sci. USA, 88:2768-2772, 1991; San Antonio, J. D., et al, Biochemistry, 32:4746-4755, 1993).
Retardation coefficients (R) for the migration of low Mr 1^25I-tyramine-heparin through peptides were determined from ACE gel electrophoretograms, and are plotted against peptide concentration. Smooth curves represent non-linear least-squares fits to the equation R=R∞/{1+(Kd/[peptide])^n}.

[2] = system: anti-Factor Xa Activity of the Low Molecular Weight Heparin Lovenox ®; assay: Anti-Factor Xa assay (Stachrom Heparin kit): neutralization of Lovenox in citrate or plasma in vitro; format: biochemical, human; conditions: for Lovenox ® Neutralized: Lovenox 0.7 U/ml; for anti-LMWH effect in citrate compared with plasma: Table 2A
Protocol: The ability of peptides such as (ARKKAAKA)3VLVLVLVL (SEQ ID NO:5) to neutralize the anti-Factor Xa activity of UFH and LMWH in vitro was tested using the Stachrom Heparin kit (Diagnostica Stago), a standard hematology laboratory assay used to measure the anti-Factor Xa activity of heparin. The assay was performed using the low molecular weight heparin enoxaparin sodium (Lovenox®, Aventis Pharmaceuticals, Inc.), unfractionated heparin (UFH), or the non-heparin glycosaminoglycan danaparoid sodium (Orgaran®, Organon Inc., West Orange, N.J.) in 0.32% citrate or in plasma anticoagulated with 0.32% citrate. Enoxaparin is commonly used clinically as a low molecular weight heparin (LMWH). Danaparoid is commonly used clinically as a non-heparin glycosaminoglycan anticoagulant. Currently, the only FDA approved drug to target UFH is protamine, which is not effective in vivo against LMWH or a non-heparin glycosaminoglycan such as danaparoid. Buffer and ATIII are added to form the heparin/ATIII complex, peptide is added, then Factor Xa, reporter dye substrate for Factor Xa activity, and stop solution, and the dye concentration is read at 405 nm. The absorbance of the dye increases with increasing Factor Xa activity, and thus is inversely proportional to the heparin (anti-Factor Xa activity) concentration. Peptides were tested in plasma obtained from three volunteers (A, B, and C). Platelet function inhibitors PG12 and theophylline were added to the blood immediately upon collection.
Results. […] (ARKKAAKA)3VLVLVLVL (SEQ ID NO:5) and VLVL(ARKKAAKA)3ARKKCAKA (SEQ ID NO:38) were able to neutralize about 0.4 U/ml anti-Factor Xa activity of LMWH at a concentration of 12 μg/ml, which would be an effective dose for patients. (AKKARA)6 (SEQ ID […]), (ARKKAAKA)4 (SEQ ID NO:31) and (ARKKAAKA)3ARKKCAKA […] 0.3-0.35 U/ml. In contrast, 12 μg protamine only neutralized about 0.25 U/ml of LMWH under these conditions.

[3] = system: Lovenox ® Activity in Blood from Patients Treated with Lovenox ®; assay: Neutralizing Lovenox activity in blood from patients treated with Lovenox (anti-Factor Xa assay); format: biochemical, human; conditions: for Lovenox ® Neutralized: Peptide 12 μg/ml
Protocol: Blood was obtained from volunteers who were being treated with Lovenox® for their medical conditions after obtaining signatures on informed consent forms as approved by the Institutional Review Board. The assays to test neutralization of Lovendx® were performed as described for Table 2. A dose response from 1-60 μg/ml was evaluated as in Table 2.
The dose response pattern for the effective peptides was similar to the dose response in control plasma to which Lovenox® had been added. Each data point represents the mean and standard deviation of triplicate analyses on the same sample of blood from each patient.

[4] = blood of Lovenox-treated Patient Number 1
[5] = blood of Lovenox-treated Patient Number 2
[6] = blood of Lovenox-treated Patient Number 3
[7] = blood of Lovenox-treated Patient Number 4
[8] = blood of Lovenox-treated Patient Number 5
[9] = blood of Lovenox-treated Patient Number 8
[10] = blood of Lovenox-treated Patient Number 9
[11] = blood of Lovenox-treated Patient Number 10
[12] = blood of Lovenox-treated Patient Number 11

Row | Compound | Lovenox ® Neutralized ([2]; 1 μg/ml Peptide, A Plasma) | Lovenox ® Neutralized ([2]; 1 μg/ml Peptide, B Plasma) | Lovenox ® Neutralized ([2]; 1 μg/ml Peptide, C Plasma) | Lovenox ® Neutralized ([2]; 1 μg/ml Peptide, Citrate) | Lovenox ® Neutralized ([2]; 6 μg/ml Peptide, A Plasma) | Lovenox ® Neutralized ([2]; 6 μg/ml Peptide, B Plasma) | Lovenox ® Neutralized ([2]; 6 μg/ml Peptide, C Plasma) | Lovenox ® Neutralized ([2]; 6 μg/ml Peptide, Citrate) | Lovenox ® Neutralized ([2]; 12 μg/ml Peptide, A Plasma) | Lovenox ® Neutralized ([2]; 12 μg/ml Peptide, B Plasma) | Lovenox ® Neutralized ([2]; 12 μg/ml Peptide, C Plasma) | Lovenox ® Neutralized ([2]; 12 μg/ml Peptide, Citrate) | Lovenox ® Neutralized ([2]; 60 μg/ml Peptide, A Plasma) | Lovenox ® Neutralized ([2]; 60 μg/ml Peptide, B Plasma) | Lovenox ® Neutralized ([2]; 60 μg/ml Peptide, C Plasma) | Lovenox ® Neutralized ([2]; 60 μg/ml Peptide, Citrate) | Lovenox ® Neutralized ([2]; 120 μg/ml Peptide, A Plasma) | Lovenox ® Neutralized ([2]; 120 μg/ml Peptide, B Plasma) | Lovenox ® Neutralized ([2]; 120 μg/ml Peptide, C Plasma) | Lovenox ® Neutralized ([2]; 120 μg/ml Peptide, Citrate) | other results
1 | C[C@@H]1NC(=O)[C@H](C)NC(=O)[C@H](CCCCN)NC(=O)[C@H](CCCCN)NC(=O)[C@H](CCCNC(=N)N)NC(=O)[C@H](C)NC(=O)[C@H](C)NC(=O)[C@H](CCCCN)NC(=O)[C@H](C)NC(=O)[C@H](C)NC(=O)[C@H](CCCCN)NC(=O)[C@H](CCCCN)NC(=O)[C@H](CCCNC(=N)N)NC(=O)[C@H](C)NC(=O)[C@@H](N)CSSC[C@@H](C(=O)O)NC(=O)[C@H](C)NC(=O)[C@H](CCCCN)NC(=O)[C@H](C)NC(=O)[C@H](C)NC(=O)[C@H](CCCCN)NC(=O)[C@H](CCCCN)NC(=O)[C@H](CCCNC(=N)N)NC(=O)[C@H](C)NC(=O)[C@H](C)NC(=O)[C@H](CCCCN)NC(=O)[C@H](C)NC(=O)[C@H](C)NC(=O)[C@H](CCCCN)NC(=O)[C@H](CCCCN)NC(=O)[C@H](CCCNC(=N)N)NC(=O)[C@H](C)NC(=O)[C@H](C)NC(=O)[C@H](CCCCN)NC1=O [C(ARKKAAKA)4C, cyclized C(ARKKAAKA)4C] (H-CARKKAAKAARKKAAKAARKKAAKAARKKAAKAC-OH; disulfide 1-34) | 0.034 ± 0.019 U/ml | 0.022 ± 0.009 U/ml | 0.011 ± 0.005 U/ml | 0.058 ± 0.039 U/ml | 0.102 ± 0.012 U/ml | 0.126 ± 0.039 U/ml | 0.092 ± 0.014 U/ml | 0.245 ± 0.064 U/ml | 0.213 ± 0.048 U/ml | 0.251 ± 0.098 U/ml | 0.218 ± 0.047 U/ml | 0.474 ± 0.024 U/ml | 0.496 ± 0.016 U/ml | 0.506 ± 0.012 U/ml | 0.522 ± 0.009 U/ml | 0.554 ± 0.023 U/ml | 0.551 ± 0.031 U/ml | 0.538 ± 0.013 U/ml | 0.592 ± 0.019 U/ml | 0.525 ± 0.028 U/ml | Kd [1]: 38 ± 13 nM; anti-LMWH effect in citrate compared with plasma [2]: greater anti-LMWH effect in citrate than in plasma; Lovenox ® Neutralized [3, 4]: 0.164 U/ml; Lovenox ® Neutralized [3, 5]: 0.132 U/ml; Lovenox ® Neutralized [3, 6]: 0.119 U/ml; Lovenox ® Neutralized [3, 7]: 0.337 U/ml; Lovenox ® Neutralized [3, 8]: 0.230 U/ml; Lovenox ® Neutralized [3, 9]: 0.163 U/ml; Lovenox ® Neutralized [3, 10]: 0.418 U/ml; Lovenox ® Neutralized [3, 11]: 0.302 U/ml; Lovenox ® Neutralized [3, 12]: 0.175 U/ml
2 | Protamine [reference compound] | 0.038 ± 0.036 U/ml | 0.086 ± 0.004 U/ml | 0.070 ± 0.050 U/ml | 0.050 ± 0.016 U/ml | 0.177 ± 0.033 U/ml | 0.200 ± 0.026 U/ml | 0.232 ± 0.065 U/ml | 0.256 ± 0.060 U/ml | 0.232 ± 0.067 U/ml | 0.249 ± 0.039 U/ml | 0.285 ± 0.041 U/ml | 0.591 ± 0.032 U/ml | 0.515 ± 0.066 U/ml | 0.574 ± 0.022 U/ml | 0.465 ± 0.021 U/ml | 0.570 ± 0.033 U/ml | 0.562 ± 0.035 U/ml | 0.592 ± 0.037 U/ml | 0.499 ± 0.16 U/ml | 0.480 ± 0.058 U/ml | anti-Factor Xa activity of LMWH neutralized ([2]; 12 μg/ml, plasma): about 0.25 U/ml; anti-LMWH effect in citrate compared with plasma [2]: greater anti-LMWH effect in citrate than in plasma; effectiveness in neutralizing Lovenox in blood of patients [3]: neutralized Lovenox® in the blood of just one patient; Lovenox ® Neutralized [3, 4]: 0.016 U/ml; Lovenox ® Neutralized [3, 5]: 0.022 U/ml; Lovenox ® Neutralized [3, 6]: 0 U/ml; Lovenox ® Neutralized [3, 7]: 0.092 U/ml; Lovenox ® Neutralized [3, 8]: 0.013 U/ml; Lovenox ® Neutralized [3, 9]: 0.018 U/ml; Lovenox ® Neutralized [3, 10]: 0.244 U/ml; Lovenox ® Neutralized [3, 11]: 0.069 U/ml; Lovenox ® Neutralized [3, 12]: 0.021 U/ml
